Assay results reported in US20260250318A1, “COMPOSITIONS AND METHODS FOR CROSSING THE BLOOD BRAIN BARRIER” (VOYAGER THERAPEUTICS, INC., priority 2022, published 2026).

Each sequence was assayed on brains, heart, liver, muscle, and DRG of the NHPs (assay: Maturation of TTM-001 and TTM-002 capsids, NGS enrichment in NHP tissues). Conditions: NGS fold-enrichment of RNA, NHP brain, relative to AAV9 control.
Format: in vivo
Procedure, shortened: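 Variants carry mutations within and flanking the loop IV peptide insert: positions 450–466 were triplet-randomized, while positions 449–466 received low-frequency point mutations. The combined pool went into two NHPs, and each peptide was scored by NGS enrichment ratio against AAV9.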

Compared with KTINGHESPHKSAQNRQT, KTINGHDSPHKIGLDQQT is higher in “Fold Enrichment relative to AAV9, Brain (NHP)” value: 95.531 fold for the first, 165.627 fold for the second.

Going from KTEKGSGSPHSKAQNQQT to KTESAHDSPHKSGQNQQT, the “Fold Enrichment relative to AAV9, Brain (NHP)” value falls from 105.614 fold to 80.810 fold.

Same assay, conditions: NGS fold-enrichment of matured AAV capsid variants; NHP brain, RNA; relative to AAV9 control

Compared with KAENGSGSPHSKAQNQQT, KTDVNSGSPHSKAQNQQT is higher in “Fold Enrichment relative to AAV9, Brain (NHP)” value: 52.487 fold for the first, 57.593 fold for the second.

First: KTINGSGSPHSKAQREMT
Second: KTINGGGSPHSKAQNPQA
The “Fold Enrichment relative to AAV9, Brain (NHP)” value of the first is lower: 51.076 fold for the first, 51.574 fold for the second.

Compared with KAINGSGSPHSKAQDKQT, KAVNVSGSPHSKAQNQQT is higher in “Fold Enrichment relative to AAV9, Brain (NHP)” value: 54.452 fold for the first, 54.586 fold for the second.

In the case of KEVQGSGSPHSKAQNQQT, the “Fold Enrichment relative to AAV9, Brain (NHP)” value is reported as 58.125 fold.

Same assay, conditions: NGS fold-enrichment, DRG of NHPs, relative to AAV9 control

KTFSGSGSPHSKAQNLQT and KTDKVSGSPHSKAQNQQT are the same in “Fold Enrichment relative to AAV9, DRG (NHP)” value: 0.000 fold for the first, 0.000 fold for the second.

First: KTEKGSGSPHSKAQNQQT
Second: KTIKGSGSPHSKAQDLQT
The “Fold Enrichment relative to AAV9, DRG (NHP)” value of the first is higher: 0.053 fold for the first, 0.000 fold for the second.

Same assay, conditions: NGS fold-enrichment, NHP DRG, relative to AAV9 control

KTINGHESPHKSAQNRQT and KTINGHDSPHKIGLDQQT are the same in “Fold Enrichment relative to AAV9, DRG (NHP)” value: 0.000 fold for the first, 0.000 fold for the second.

Compared with KTEKGSGSPHSKAQNQQT, KTESAHDSPHKSGQNQQT is lower in “Fold Enrichment relative to AAV9, DRG (NHP)” value: 0.053 fold for the first, 0.000 fold for the second.

Same assay, conditions: NGS fold-enrichment, NHP heart, relative to AAV9 control

First: KTINGHESPHKSAQNRQT
Second: KTINGHDSPHKIGLDQQT
The “Fold Enrichment relative to AAV9, Heart (NHP)” value of the first is higher: 0.113 fold for the first, 0.000 fold for the second.

Going from KTEKGSGSPHSKAQNQQT to KTESAHDSPHKSGQNQQT, the “Fold Enrichment relative to AAV9, Heart (NHP)” value rises from 0.031 fold to 0.039 fold.

Same assay, conditions: NGS fold-enrichment, NHP liver DNA, relative to AAV9 control

First: KTINGHESPHKSAQNRQT
Second: KTINGHDSPHKIGLDQQT
The “Fold Enrichment relative to AAV9, Liver DNA (NHP)” value of the first is higher: 0.082 fold for the first, 0.000 fold for the second.

Going from KTEKGSGSPHSKAQNQQT to KTESAHDSPHKSGQNQQT, the “Fold Enrichment relative to AAV9, Liver DNA (NHP)” value falls from 0.169 fold to 0.000 fold.

Same assay, conditions: NGS fold-enrichment, NHP liver RNA, relative to AAV9 control

Compared with KTINGHESPHKSAQNRQT, KTINGHDSPHKIGLDQQT is higher in “Fold Enrichment relative to AAV9, Liver RNA (NHP)” value: 0.130 fold for the first, 1.942 fold for the second.

First: KTEKGSGSPHSKAQNQQT
Second: KTESAHDSPHKSGQNQQT
The “Fold Enrichment relative to AAV9, Liver RNA (NHP)” value of the first is higher: 0.586 fold for the first, 0.000 fold for the second.

Same assay, conditions: NGS fold-enrichment, NHP muscle, relative to AAV9 control

KTINGHESPHKSAQNRQT and KTINGHDSPHKIGLDQQT are the same in “Fold Enrichment relative to AAV9, Muscle (NHP)” value: 0.000 fold for the first, 0.000 fold for the second.

KTEKGSGSPHSKAQNQQT and KTESAHDSPHKSGQNQQT are the same in “Fold Enrichment relative to AAV9, Muscle (NHP)” value: 0.000 fold for the first, 0.000 fold for the second.

Same assay, conditions: NGS fold-enrichment, RNA, brain of NHPs, relative to AAV9 control

First: KTFSGSGSPHSKAQNLQT
Second: KTDKVSGSPHSKAQNQQT
The “Fold Enrichment relative to AAV9, Brain (NHP)” value of the first is higher: 70.035 fold for the first, 60.935 fold for the second.

First: KTEKGSGSPHSKAQNQQT
Second: KTIKGSGSPHSKAQDLQT
The “Fold Enrichment relative to AAV9, Brain (NHP)” value of the first is higher: 105.614 fold for the first, 63.260 fold for the second.

Same assay, conditions: NGS fold-enrichment, heart of NHPs, relative to AAV9 control

First: KTFSGSGSPHSKAQNLQT
Second: KTDKVSGSPHSKAQNQQT
The “Fold Enrichment relative to AAV9, Heart (NHP)” value of the first is higher: 0.327 fold for the first, 0.015 fold for the second.

Compared with KTEKGSGSPHSKAQNQQT, KTIKGSGSPHSKAQDLQT is lower in “Fold Enrichment relative to AAV9, Heart (NHP)” value: 0.031 fold for the first, 0.000 fold for the second.

Same assay, conditions: NGS fold-enrichment, liver DNA of NHPs, relative to AAV9 control

Compared with KTFSGSGSPHSKAQNLQT, KTDKVSGSPHSKAQNQQT is lower in “Fold Enrichment relative to AAV9, Liver DNA (NHP)” value: 0.228 fold for the first, 0.128 fold for the second.

Going from KTEKGSGSPHSKAQNQQT to KTIKGSGSPHSKAQDLQT, the “Fold Enrichment relative to AAV9, Liver DNA (NHP)” value rises from 0.169 fold to 0.218 fold.

Same assay, conditions: NGS fold-enrichment, liver RNA of NHPs, relative to AAV9 control

Going from KTFSGSGSPHSKAQNLQT to KTDKVSGSPHSKAQNQQT, the “Fold Enrichment relative to AAV9, Liver RNA (NHP)” value rises from 0.000 fold to 0.765 fold.

Compared with KTEKGSGSPHSKAQNQQT, KTIKGSGSPHSKAQDLQT is lower in “Fold Enrichment relative to AAV9, Liver RNA (NHP)” value: 0.586 fold for the first, 0.000 fold for the second.

Same assay, conditions: NGS fold-enrichment, muscle of NHPs, relative to AAV9 control

Compared with KTFSGSGSPHSKAQNLQT, KTDKVSGSPHSKAQNQQT is lower in “Fold Enrichment relative to AAV9, Muscle (NHP)” value: 0.303 fold for the first, 0.000 fold for the second.

KTEKGSGSPHSKAQNQQT and KTIKGSGSPHSKAQDLQT are the same in “Fold Enrichment relative to AAV9, Muscle (NHP)” value: 0.000 fold for the first, 0.000 fold for the second.

Same assay, conditions: NHP DRG; relative to AAV9 control

KAENGSGSPHSKAQNQQT and KTDVNSGSPHSKAQNQQT are the same in “Fold Enrichment relative to AAV9, DRG (NHP)” value: 0.000 fold for the first, 0.000 fold for the second.

KTINGSGSPHSKAQREMT and KTINGGGSPHSKAQNPQA are the same in “Fold Enrichment relative to AAV9, DRG (NHP)” value: 0.000 fold for the first, 0.000 fold for the second.

KAINGSGSPHSKAQDKQT and KAVNVSGSPHSKAQNQQT are the same in “Fold Enrichment relative to AAV9, DRG (NHP)” value: 0.000 fold for the first, 0.000 fold for the second.

With KEVQGSGSPHSKAQNQQT the “Fold Enrichment relative to AAV9, DRG (NHP)” value was 0.000 fold.

Same assay, conditions: NHP heart; relative to AAV9 control

Going from KAENGSGSPHSKAQNQQT to KTDVNSGSPHSKAQNQQT, the “Fold Enrichment relative to AAV9, Heart (NHP)” value falls from 0.157 fold to 0.000 fold.

Going from KTINGSGSPHSKAQREMT to KTINGGGSPHSKAQNPQA, the “Fold Enrichment relative to AAV9, Heart (NHP)” value falls from 24.900 fold to 0.000 fold.

KAINGSGSPHSKAQDKQT and KAVNVSGSPHSKAQNQQT are the same in “Fold Enrichment relative to AAV9, Heart (NHP)” value: 0.000 fold for the first, 0.000 fold for the second.

With KEVQGSGSPHSKAQNQQT the “Fold Enrichment relative to AAV9, Heart (NHP)” value was 0.000 fold.

Same assay, conditions: NHP liver, DNA; relative to AAV9 control

Compared with KAENGSGSPHSKAQNQQT, KTDVNSGSPHSKAQNQQT is higher in “Fold Enrichment relative to AAV9, Liver DNA (NHP)” value: 0.242 fold for the first, 0.331 fold for the second.

Going from KTINGSGSPHSKAQREMT to KTINGGGSPHSKAQNPQA, the “Fold Enrichment relative to AAV9, Liver DNA (NHP)” value falls from 0.476 fold to 0.000 fold.

First: KAINGSGSPHSKAQDKQT
Second: KAVNVSGSPHSKAQNQQT
The “Fold Enrichment relative to AAV9, Liver DNA (NHP)” value of the first is higher: 0.223 fold for the first, 0.023 fold for the second.

For KEVQGSGSPHSKAQNQQT, the “Fold Enrichment relative to AAV9, Liver DNA (NHP)” value was 0.000 fold.

Same assay, conditions: NHP liver, RNA; relative to AAV9 control

KAENGSGSPHSKAQNQQT and KTDVNSGSPHSKAQNQQT are the same in “Fold Enrichment relative to AAV9, Liver RNA (NHP)” value: 0.000 fold for the first, 0.000 fold for the second.

Compared with KTINGSGSPHSKAQREMT, KTINGGGSPHSKAQNPQA is lower in “Fold Enrichment relative to AAV9, Liver RNA (NHP)” value: 1.564 fold for the first, 0.192 fold for the second.

Going from KAINGSGSPHSKAQDKQT to KAVNVSGSPHSKAQNQQT, the “Fold Enrichment relative to AAV9, Liver RNA (NHP)” value falls from 0.044 fold to 0.000 fold.

In the case of KEVQGSGSPHSKAQNQQT, the “Fold Enrichment relative to AAV9, Liver RNA (NHP)” value is reported as 0.657 fold.

Same assay, conditions: NHP muscle; relative to AAV9 control

Compared with KAENGSGSPHSKAQNQQT, KTDVNSGSPHSKAQNQQT is lower in “Fold Enrichment relative to AAV9, Muscle (NHP)” value: 0.029 fold for the first, 0.000 fold for the second.

First: KTINGSGSPHSKAQREMT
Second: KTINGGGSPHSKAQNPQA
The “Fold Enrichment relative to AAV9, Muscle (NHP)” value of the first is higher: 143.49 fold for the first, 0.000 fold for the second.

Compared with KAINGSGSPHSKAQDKQT, KAVNVSGSPHSKAQNQQT is lower in “Fold Enrichment relative to AAV9, Muscle (NHP)” value: 0.057 fold for the first, 0.000 fold for the second.

For KEVQGSGSPHSKAQNQQT, the “Fold Enrichment relative to AAV9, Muscle (NHP)” value was 0.000 fold.

What follows are sequences tested on brain (assay: Matured TTM-001 and TTM-002 variants, NGS enrichment in mouse brain). Conditions: NGS fold-enrichment, brain of mice, relative to AAV9 control.
Format: in vivo, mice

Going from KTFSGSGSPHSKAQNLQT to KTDKVSGSPHSKAQNQQT, the “Fold Enrichment relative to AAV9, Brain (Mouse)” value rises from 70.917 fold to 146.657 fold.

Compared with KTEKGSGSPHSKAQNQQT, KTIKGSGSPHSKAQDLQT is lower in “Fold Enrichment relative to AAV9, Brain (Mouse)” value: 84.653 fold for the first, 58.576 fold for the second.

Same assay, conditions: NGS fold-enrichment, mouse brain, relative to AAV9 control

First: KTINGHESPHKSAQNRQT
Second: KTINGHDSPHKIGLDQQT
The “Fold Enrichment relative to AAV9, Brain (Mouse)” value of the first is lower: 4.815 fold for the first, 5.469 fold for the second.

Compared with KTEKGSGSPHSKAQNQQT, KTESAHDSPHKSGQNQQT is lower in “Fold Enrichment relative to AAV9, Brain (Mouse)” value: 84.653 fold for the first, 13.338 fold for the second.

Same assay, conditions: mouse brain; relative to AAV9 control

Compared with KAENGSGSPHSKAQNQQT, KTDVNSGSPHSKAQNQQT is lower in “Fold Enrichment relative to AAV9, Brain (Mouse)” value: 120.256 fold for the first, 66.127 fold for the second.

Going from KTINGSGSPHSKAQREMT to KTINGGGSPHSKAQNPQA, the “Fold Enrichment relative to AAV9, Brain (Mouse)” value rises from 70.961 fold to 102.792 fold.

First: KAINGSGSPHSKAQDKQT
Second: KAVNVSGSPHSKAQNQQT
The “Fold Enrichment relative to AAV9, Brain (Mouse)” value of the first is lower: 56.004 fold for the first, 57.835 fold for the second.

In the case of KEVQGSGSPHSKAQNQQT, the “Fold Enrichment relative to AAV9, Brain (Mouse)” value is reported as 168.220 fold.
